Experimental findings from PubChem BioAssay AID602211 (Sanford-Burnham Center for Chemical Genomics, 2012) are described below.

SMILES strings stand for the structures. Activity calls are given as the source filed them.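 How the source made its calls: active means mean IC50 at or below 10 µM; inactive means the rest.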

In this test the test system is H9c2 cardiomyocytes, H2O2 protection, ATPLite viability, 2 h. Nature of the test: protection of H9c2 cardiomyocytes from H2O2 death, dose response, cell-based, ATPLite luminescence, set 2 (AID 602211;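 further: potency is for protection so actives keep ATP signal up against peroxide killing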). (In general: Cellular ATP, detected with luciferase, serves as a proxy for viable cell number.)
What is called IC50 is the midpoint of a concentration-inhibition curve. As for `Cc1ncc(CO)c2cc(C(=O)Nc3ccccc3Cl)c(=Nc3cccc(C(N)=O)c3)oc12`, the IC50 is 0.51 µM.
For `O=C(CNC(=O)c1nc[nH]c1C(=O)NCC(=O)OCc1ccccc1)OCc1ccccc1`, the IC50 is 0.38 µM.
`CC(=O)Nc1cc(-c2ccccc2)cn2c(-c3cccc(C(C)=O)c3)cnc12`: the half-inhibitory concentration (IC50) is 8.67 µM.
With `COc1cc2nc(C3CCC3)nc(N3CCN(c4ccccn4)CC3)c2cc1OC`, the IC50 was > 79 µM (inactive).
On to `CC(C)(C)NC(=O)COC(=O)c1c2c(nc3ccccc13)CCC2`, for which the IC50 was 14.6 µM (inactive).
The figure for `CCOC(=O)c1cc(-c2nnc(-c3cc(OC)c(OC)c(OC)c3)o2)c(C)nc1C` is 2.25 µM.
For the molecule `C=CCOC(=O)C1=C[C@H](c2cn(C(C)=O)c3ccccc23)C[C@H](OCc2ccc(CO)cc2)O1`, the IC50 was 9.81 µM.
On to `COc1ccc2cc3cc(C(=O)NCCc4ccc(OC)c(OC)c4)oc3nc2c1`, for which the IC50 was 4.28 µM.
The figure for `O=C(C[C@@H]1C/C=C/CC[C@@H](Cc2ccc(F)cc2)C(=O)O[C@@H](c2ccccc2)CNC1=O)NCCO` is 10.9 µM (inactive); for `COc1ccc(C(C(=O)NC2CCCC2)N(C(=O)c2snc(C(N)=O)c2N)c2cccc(O)c2)cc1` (stereo not drawn) it is 12.7 µM (inactive).
With `COc1cc(-c2nnc(-c3cc(-c4ccccc4)nc4ccccc34)o2)cc(OC)c1OC`, the half-inhibitory concentration (IC50) is 4.14 µM.
The figure for `O=C(c1ccccc1)c1ccc2nc(N3CCN(C(=O)c4ccco4)CC3)c3nncn3c2c1` is 9.31 µM; for `COc1ccc(-c2cc(NC(C)=O)c3ncc(-c4ccc(OC)c(OC)c4)n3c2)cc1OC` it is > 79 µM (inactive); for `Cc1ccc(CN(C(=O)CNC(=O)c2cccs2)C(C(=O)NCC2CCCO2)c2ccccc2)cc1` (stereo not drawn) it is 14.9 µM (inactive).
The figure for `CC(=O)Nc1cccc(-c2cc(NC=O)c3ncc(-c4ccc(C(C)=O)cc4)n3c2)c1` is 6.5 µM; for `CCOC(=O)c1nn(-c2cccc(OC)c2)c2nc(Nc3ccccc3)cc(=O)n12` it is > 79 µM (inactive); for `CCc1nnc(NC(=O)CCC(=O)N2CCN(C3c4ccccc4-c4ccccc43)CC2)s1` it is 12.9 µM (inactive).
The figure for `Cc1ccc(C)c(NC(=O)C(Sc2nc3ccccc3c(=O)n2CC(C)C)c2ccccc2)c1` (stereo not drawn) is 0.35 µM.
On to `O=C(CNC(=O)c1[nH]cnc1C(=O)NC(c1ccccc1)c1ccccc1)OCc1ccccc1`, for which the IC50 was 10.1 µM (inactive).
The figure for `O=C(Cn1nc(C(=O)O)c2ccccc2c1=O)c1c[nH]c2ccccc12` is 3.53 µM; for `COc1ccc(-c2nnc(-c3cc(OC)c(OC)c(OC)c3)o2)cc1OC` it is 43.9 µM (inactive).
The figure for `Cc1ccc2nc(-c3ccccc3)cc(C(=O)NNC(=O)c3csc(N4CCOCC4)n3)c2c1` is 15 µM (inactive); for `CC(=O)Nc1ccc(S(=O)(=O)N(Cc2ccco2)Cc2cc3ccccc3[nH]c2=O)cc1` it is > 79 µM (inactive).
Turning to `COc1cccc(-c2cnc3c(NC=O)cc(-c4cc(C)c(O)c(C)c4)cn23)c1`, the IC50 was 10.2 µM (inactive).
The figure for `CCOc1ccc2ccccc2c1C(=O)N[C@@H]1C(=O)N2[C@@H]1SC(C)(C)[C@@H]2C(=O)O` is 24.4 µM (inactive).
As to `CCC(C)N1C(=O)S/C(=C/c2ccc3c(c2)n(C)c(=O)n3C)C1=O` (stereo not drawn), the IC50 was > 79 µM (inactive).
Regarding `COc1cc(NC(=O)c2c(OC)cccc2OC)ccc1NC(=O)c1cc2ccccc2o1`, the IC50 is 15.1 µM (inactive).
The figure for `CN(C(=O)c1sc2nc(N3CCOCC3)c3c(c2c1N)CCCC3)c1ccccc1` is 2.64 µM; for `COc1cc2c(C#CCCO)c(-c3ccsc3)oc(=O)c2cc1OC` it is 2.04 µM; for `COC(=O)c1ccc2c(=O)[nH]c(COC(=O)c3[nH]c(C)c(C(C)=O)c3C)nc2c1` it is 5.29 µM.
The figure for `COC(=O)/C(=C(O)\C=C\c1ccccc1[N+](=O)[O-])c1nc2ccccc2[nH]1` is 7.96 µM; for `CC(=NO)C1CCC2C3CCC4CC(=NO)CCC4(C)C3C(C)(O)CC12C` (stereo not drawn) it is > 79 µM (inactive).
The figure for `Cc1ccc(-c2nn3c(-c4ccco4)nnc3c3ccccc23)cc1S(=O)(=O)NCC1CCCO1` (stereo not drawn) is 10.6 µM (inactive).
In the case of `CCOC(=O)c1nc(Nc2ccc(C(=O)OC)cc2)c2ccccc2n1`, the half-inhibitory concentration (IC50) was 6.89 µM.
The figure for `COc1cccc(CN2CCN(C(=O)c3cc(-c4cccnc4)nc4ccc(C)cc34)CC2)c1` is 22.9 µM (inactive).
The figure for `COC(=O)c1cc(C(=O)OCC(=O)N2c3ccccc3NC(=O)C2(C)C)cc([N+](=O)[O-])c1` is 6.28 µM; for `COc1ccc(C(=O)Nc2cc(C)nn2-c2nc3ccccc3[nH]2)c(OC)c1` it is 10.9 µM (inactive); for `CC1(C)CC(=O)C2=C(C1)N(CCN1CCOCC1)C1=C(C(=O)CC(C)(C)C1)C2c1ccc(Cl)cc1` it is 9.75 µM.
For `COc1ccc(-c2oc(=O)c3cc(OC)c(OC)cc3c2C#CCCO)cc1`, the IC50 was 6.71 µM.
Turning to `COc1cc(NC(=O)c2ccco2)c(C(=O)OCC(=O)c2c[nH]c3ccccc23)cc1OC`, the IC50 is > 79 µM (inactive).
As for `Cc1ccccc1C(C(=O)NCc1ccccc1)N(Cc1ccco1)C(=O)c1ccccn1` (stereo not drawn), the IC50 is > 79 µM (inactive).
On to `CC(C)=NNc1cnnc2ccc([N+](=O)[O-])cc12`, for which the IC50 is 4.85 µM.
On to `CCn1c(=O)cc(OCC(=O)Nc2ccccc2C#N)c2ccccc21`, for which the IC50 was 11.9 µM (inactive).
The figure for `Cc1cccc(NC(=O)c2nc[nH]c2C(=O)NCCCNC(=O)c2[nH]cnc2C(=O)Nc2cccc(C)c2)c1` is 0.729 µM; for `COc1cc(/C=C/c2nc3ccccc3c(=O)n2-c2ccc(O)cc2)ccc1O` it is 3.01 µM.
On to `NC(=O)c1nsc(C(=O)N(c2ccccc2)C(C(=O)NCc2ccc(F)cc2)c2ccc(O)cc2)c1N` (stereo not drawn), for which the half-maximal inhibitory concentration (IC50) was 1.98 µM.
The figure for `COc1cccc(Nc2nc3ccccc3n3cnnc23)c1` is 9.05 µM; for `COc1ccc(-c2nc(NC(=O)c3ccc(OCC(=O)N4CCOCC4)c(OC)c3)sc2C)cc1` it is > 79 µM (inactive); for `COc1cc(C(=O)Nc2nc(-c3cccs3)cs2)cc(OC)c1OC` it is 1.78 µM.
The figure for `N#Cc1c(-c2ccco2)cc(-c2ccccn2)nc1N` is 28.5 µM (inactive); for `COc1cc(C(=O)N/N=C/c2ccc(OC(=O)c3cccc(C)c3)c(OC)c2)ccc1O` it is 3.16 µM.
On to `COc1cccc(/C=N/Nc2nc3ccccc3n3cnnc23)c1`, for which the IC50 was > 79 µM (inactive).
Turning to `COc1ccc(-c2nn3c(-c4ccco4)nnc3s2)cc1OC`, the IC50 was 12.3 µM (inactive).
The figure for `CCOC(=O)C1CCN(C(c2cc3c(C)ccc(C)c3[nH]c2=O)c2nnnn2C2CCCCC2)CC1` (stereo not drawn) is > 79 µM (inactive); for `O=C(c1cc2nc(-c3ccccc3)cc(-c3ccccc3)n2n1)N1CCN(C(=O)c2ccco2)CC1` it is 1.25 µM; for `CC12CCC3C(CCC4CC(O)CCC43C)C1CC(O)C2` (stereo not drawn) it is 3.41 µM.
Turning to `CCC(CC)C(=O)Nc1cc(C)c2c(=O)oc3ccccc3c2n1`, the IC50 is 2.05 µM.
The figure for `Cc1ccc(-c2nnc3ccc(SCC(=O)N4CCCc5ccccc54)nn23)cc1` is > 79 µM (inactive); for `COc1ccc(C(C(=O)NCc2ccccc2)N(Cc2cccs2)C(=O)c2cnccn2)cc1` (stereo not drawn) it is 25 µM (inactive).
Turning to `COc1cc2[nH]c(=O)n3nc(-c4ccccc4)nc3c2cc1OC`, the IC50 is 11 µM (inactive).
The figure for `O=C(Nc1cc(S(=O)(=O)N2CCOCC2)ccc1N1CCCCC1)c1cc(-c2ccccn2)nc2ccccc12` is 3.38 µM.
The figure for `NC(=O)c1nsc(C(=O)N(CCc2ccccc2)C(C(=O)NC2CCCC2)c2ccco2)c1N` (stereo not drawn) is 11.3 µM (inactive).
Consider `CC(C)CCN(C(=O)CNC(=O)c1ccco1)C(C(=O)NC1CCCCC1)c1ccco1` (stereo not drawn), for which the IC50 was 13.4 µM (inactive).
The figure for `CNC(=O)c1cccc(NC(=O)c2cc(-c3ccccc3)nc3c2cnn3C(C)C)c1` is > 79 µM (inactive); for `CC(=O)Nc1cccc(-c2cc(NC(C)=O)c3ncc(-c4ccccc4)n3c2)c1` it is 13.7 µM (inactive); for `COCCCNC(=O)/C(C#N)=C1\N=C(NC(=O)c2cccs2)c2ccccc21` it is > 79 µM (inactive).
The figure for `CS(=O)(=O)c1ccc(-c2cnc3c(NC=O)cc(-c4ccsc4)cn23)cc1` is 12.5 µM (inactive); for `CCOC(=O)c1c(C)[nH]c(O)c1C=Nc1ccc(Cl)cc1` it is 34.4 µM (inactive).
The figure for `CCOc1ccc(C(C(=O)NCC2CCCO2)N(C(=O)c2snc(C(N)=O)c2N)c2ccccc2F)cc1` (stereo not drawn) is 3.67 µM; for `CSc1nc2ccc(S(=O)(=O)Nc3c(C)n(C)n(-c4ccccc4)c3=O)cc2s1` it is 3.1 µM; for `COc1ccc(OCC(O)Cn2c(Br)nc3c2c(=O)[nH]c(=O)n3C)cc1` (stereo not drawn) it is 15.9 µM (inactive).
Consider `COC(=O)c1[nH]c2cc(OC)c(OC)cc2c1/C=N/Nc1ccccc1`, for which the 50% inhibitory concentration (IC50) was 6.78 µM.
The figure for `CC(C)(C)OC(=O)CNC(=O)c1[nH]cnc1C(=O)NCC(=O)OCc1ccccc1` is 0.747 µM; for `COc1ccc(OC)c(N(CC(=O)Nc2cccnc2)S(=O)(=O)c2ccc(OC)c(OC)c2)c1` it is 16.5 µM (inactive); for `CCCn1nc(C(=O)Nc2nc(-c3ccccn3)cs2)c2ccccc2c1=O` it is 3.37 µM.
Consider `COc1cccc(-c2cnc3c(NC=O)cc(-c4ccc(O)c(OC)c4)cn23)c1`, for which the concentration for half-maximal inhibition (IC50) was 5.89 µM.
With `Brc1ccc(-c2ccc(/C=N/Nc3nc(N4CCOCC4)nc(N4CCOCC4)n3)o2)cc1`, the IC50 was 3.61 µM.
Turning to `COc1ccc(-c2cc3nc(-c4ccccc4)cc(N4CCN(C(=O)c5ccoc5)CC4)n3n2)cc1`, the IC50 is 4.91 µM.
Regarding `COc1ccc(OCC(O)Cn2c(Nc3cccc(C)c3)nc3c2c(=O)n(C)c(=O)n3C)cc1` (stereo not drawn), the IC50 was 12.9 µM (inactive).
The figure for `CCCCNC(=O)c1cn(-c2ccc(OCC)cc2)c(=O)c2cc(OC)c(OC)cc12` is > 79 µM (inactive); for `Cc1ccc(-n2cc(-c3ccccc3)c3c(N4CCOCC4)ncnc32)cc1` it is 5.98 µM.
The figure for `O=c1oc2ccc3ccccc3c2cc1-c1nnc(-c2ccccc2)o1` is 17.5 µM (inactive); for `CN(CC1COc2ccccc2O1)c1nc(-c2cccnc2)nc2ccccc12` (stereo not drawn) it is 25.9 µM (inactive).
